Measured values taken from PubChem BioAssay AID248 (DTP/NCI, 2004).
“And” between values parts separate entries of the source, which are not always exact repeats. Equal entries are not always repeated. Toxic doses and inconclusive results are not listed. No stated cut-off is given here; in the data, active means T/C of 150% or more; inactive means T/C below 125%.

System: L1210 leukemia ip in BDF1 mice, survival T/C
Assay: NCI In Vivo Anticancer Drug Screen. Data for tumor model L1210 Leukemia (intraperitoneal) in B6D2F1 (BDF1) mice
Settings: endpoint: mean survival time, higher = longer survival
Summary of the method: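 Tumor cells were implanted, animals were treated, and survival was followed. The result divides the treated measurement by the vehicle-control measurement.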

[1] = dose: 100.0 mg/kg/injection, schedule: Q01DX009 (ip), vehicle: Klucel (hydroxypropylcellulose) (HPC)
[2] = dose: 100.0 mg/kg/injection, schedule: Q04DX003 (ip), vehicle: Klucel (hydroxypropylcellulose) (HPC)
[3] = dose: 200.0 mg/kg/injection, schedule: Q04DX003 (ip), vehicle: Klucel (hydroxypropylcellulose) (HPC)
[4] = dose: 100.0 mg/kg/injection, schedule: Q01DX001 (ip), vehicle: saline
[5] = dose: 200.0 mg/kg/injection, schedule: Q01DX001 (ip), vehicle: saline
[6] = dose: 400.0 mg/kg/injection, schedule: Q01DX001 (ip), vehicle: saline
[7] = dose: 100.0 mg/kg/injection, schedule: Q04DX002 (ip), vehicle: Klucel (hydroxypropylcellulose) (HPC)
[8] = dose: 200.0 mg/kg/injection, schedule: Q04DX002 (ip), vehicle: Klucel (hydroxypropylcellulose) (HPC)
[9] = dose: 100.0 mg/kg/injection, schedule: Q01DX009 (ip), vehicle: saline with Tween-80
[10] = dose: 100.0 mg/kg/injection, schedule: Q04DX003 (ip), vehicle: saline with Tween-80
[11] = dose: 200.0 mg/kg/injection, schedule: Q01DX009 (ip), vehicle: saline with Tween-80
[12] = dose: 200.0 mg/kg/injection, schedule: Q04DX003 (ip), vehicle: saline with Tween-80
[13] = dose: 400.0 mg/kg/injection, schedule: Q04DX003 (ip), vehicle: saline with Tween-80
[14] = dose: 200.0 mg/kg/injection, schedule: Q01DX009 (ip), vehicle: Klucel (hydroxypropylcellulose) (HPC)

Measured: T/C

CC(C)(NCc1ccccc1)C(=O)c1ccccc1
inactive: dose: 50.0 mg/kg/injection, schedule: Q01DX001 (ip), vehicle: carboxymethylcellulose (CMC) 100 % of control | dose: 50.0 mg/kg/injection, schedule: Q04DX003 (ip), vehicle: Klucel (hydroxypropylcellulose) (HPC) 95 % of control | dose: 100.0 mg/kg/injection, schedule: Q01DX001 (ip), vehicle: carboxymethylcellulose (CMC) 102 % of control | [1] 105 % of control | [2] 93 % of control | dose: 200.0 mg/kg/injection, schedule: Q01DX001 (ip), vehicle: carboxymethylcellulose (CMC) 90 % of control | [3] 95 % of control

N#C/C(=N\O)C(N)=O
inactive: [4] 102 % of control and 103 % of control | [5] 98 % of control and 107 % of control | [6] 93 % of control and 107 % of control

C1CC2CC1CC1C3CC4CCC(C4)C3OC21 (configuration not stated)
inactive: dose: 50.0 mg/kg/injection, schedule: Q04DX002 (ip), vehicle: saline with Tween-80 98 % of control | dose: 100.0 mg/kg/injection, schedule: Q04DX002 (ip), vehicle: saline with Tween-80 102 % of control | dose: 200.0 mg/kg/injection, schedule: Q04DX002 (ip), vehicle: saline with Tween-80 91 % of control | dose: 400.0 mg/kg/injection, schedule: Q04DX002 (ip), vehicle: saline with Tween-80 95 % of control

CCOC(=O)c1cc[n+](C)c2ccccc12
inactive: dose: 9.37 mg/kg/injection, schedule: Q01DX009 (ip), vehicle: acetone 101 % of control | dose: 18.75 mg/kg/injection, schedule: Q01DX009 (ip), vehicle: acetone 95 % of control | dose: 37.5 mg/kg/injection, schedule: Q01DX009 (ip), vehicle: acetone 98 % of control | dose: 37.5 mg/kg/injection, schedule: Q04DX003 (ip), vehicle: acetone 92 % of control | dose: 75.0 mg/kg/injection, schedule: Q04DX003 (ip), vehicle: acetone 89 % of control | dose: 150.0 mg/kg/injection, schedule: Q01DX001 (ip), vehicle: acetone 89 % of control

CC(=O)Nc1nc2c(ncn2C2OCC(OC(C)=O)C(OC(C)=O)C2OC(C)=O)c(=O)[nH]1 (configuration not stated) (tested in a mixture with another compound)
inactive: [4] 102 % of control | [5] 102 % of control | [6] 101 % of control

CCCCCC(/C=N/NC(=O)c1cccc2ccccc12)=C\c1ccccc1
inactive: [4] 94 % of control | [6] 97 % of control

COc1cccc(NC(=O)Oc2ccc(Cl)cc2Cl)c1
inactive: [7] 88 % of control | [8] 88 % of control

CCN(C)CCC(CC=C(C)C)(C(N)=O)c1cccc2ccccc12 (configuration not stated)
inactive: dose: 12.5 mg/kg/injection, schedule: Q04DX002 (ip), vehicle: saline 100 % of control | dose: 25.0 mg/kg/injection, schedule: Q04DX002 (ip), vehicle: saline 87 % of control

O=C(NC(Cc1ccccc1)C(=O)O)OCc1ccccc1 (configuration not stated)
inactive: [9] 98 % of control | [10] 105 % of control | [11] 98 % of control | [12] 94 % of control | dose: 400.0 mg/kg/injection, schedule: Q01DX009 (ip), vehicle: saline with Tween-80 88 % of control | [13] 96 % of control

CC(=O)C1(O)CCC2C3CC(C)C4=CC(=O)C=CC4(C)C3C(O)CC21C (configuration not stated)
inactive: dose: 12.5 mg/kg/injection, schedule: Q04DX002 (ip), vehicle: Klucel (hydroxypropylcellulose) (HPC) 97 % of control | dose: 25.0 mg/kg/injection, schedule: Q04DX002 (ip), vehicle: Klucel (hydroxypropylcellulose) (HPC) 97 % of control | dose: 50.0 mg/kg/injection, schedule: Q04DX002 (ip), vehicle: Klucel (hydroxypropylcellulose) (HPC) 90 % of control

CN1CC(CO)C=C2c3cccc4[nH]cc(c34)CC21 (configuration not stated)
inactive: dose: 25.0 mg/kg/injection, schedule: Q01DX009 (ip), vehicle: alcohol 100 % of control | dose: 25.0 mg/kg/injection, schedule: Q04DX003 (ip), vehicle: alcohol 98 % of control | dose: 50.0 mg/kg/injection, schedule: Q01DX009 (ip), vehicle: alcohol 118 % of control | dose: 50.0 mg/kg/injection, schedule: Q04DX003 (ip), vehicle: alcohol 103 % of control | dose: 100.0 mg/kg/injection, schedule: Q01DX009 (ip), vehicle: alcohol 123 % of control | dose: 100.0 mg/kg/injection, schedule: Q04DX003 (ip), vehicle: alcohol 101 % of control | dose: 200.0 mg/kg/injection, schedule: Q01DX009 (ip), vehicle: alcohol 107 % of control | dose: 200.0 mg/kg/injection, schedule: Q04DX003 (ip), vehicle: alcohol 98 % of control | dose: 400.0 mg/kg/injection, schedule: Q04DX003 (ip), vehicle: alcohol 109 % of control

CCOc1cccc(NNc2ccccc2OCC)c1
inactive: dose: 44.0 mg/kg/injection, schedule: Q01DX001 (ip), vehicle: other 106 % of control | dose: 66.0 mg/kg/injection, schedule: Q01DX001 (ip), vehicle: other 95 % of control | dose: 150.0 mg/kg/injection, schedule: Q01DX001 (ip), vehicle: other 92 % of control | dose: 200.0 mg/kg/injection, schedule: Q01DX001 (ip), vehicle: other 97 % of control | dose: 400.0 mg/kg/injection, schedule: Q01DX001 (ip), vehicle: other 97 % of control

C(/C=C\c1ccccc1)=Nc1ccccc1
inactive: [10] 95 % of control | [12] 95 % of control | [13] 92 % of control

CCCCCCCCC(C(=O)c1ccccc1)=C(C(F)(F)F)C(F)(F)F
inactive: dose: 25.0 mg/kg/injection, schedule: Q01DX009 (ip), vehicle: saline 100 % of control | dose: 50.0 mg/kg/injection, schedule: Q01DX009 (ip), vehicle: saline 96 % of control | dose: 100.0 mg/kg/injection, schedule: Q01DX009 (ip), vehicle: saline 91 % of control | [10] 86 % of control | [12] 90 % of control | [13] 95 % of control

NC(=O)c1cc(C(=O)O)ccc1N(N)O
inactive: [10] 101 % of control | [12] 101 % of control | [13] 90 % of control

CCN(CC)c1cc[c]([Hg][O]C(C)=O)cc1
inactive: dose: 1.56 mg/kg/injection, schedule: Q04DX003 (ip), vehicle: saline with Tween-80 92 % of control | dose: 3.13 mg/kg/injection, schedule: Q04DX003 (ip), vehicle: saline with Tween-80 90 % of control | dose: 6.25 mg/kg/injection, schedule: Q04DX003 (ip), vehicle: saline with Tween-80 93 % of control and 94 % of control | dose: 12.5 mg/kg/injection, schedule: Q04DX003 (ip), vehicle: saline with Tween-80 93 % of control

O=C(O)c1c(F)c(F)c(Oc2c(F)c(F)c(F)c(Oc3c(F)c(F)c(C(=O)O)c(F)c3F)c2F)c(F)c1F
inactive: [1] 107 % of control | [2] 100 % of control | [14] 98 % of control | [3] 97 % of control

O=C(CN1C(=O)C(=O)O/C1=C/c1ccccc1)OCc1ccccc1
inactive: [1] 105 % of control | [14] 103 % of control

CCOC(=O)CCOCOCCC(=O)OCC
inactive: dose: 100.0 mg/kg/injection, schedule: Q04DX003 (ip), vehicle: saline 106 % of control | dose: 200.0 mg/kg/injection, schedule: Q04DX003 (ip), vehicle: saline 110 % of control | dose: 400.0 mg/kg/injection, schedule: Q04DX003 (ip), vehicle: saline 95 % of control

O=C(O)CSCCCc1ccccc1
inactive: dose: 50.0 mg/kg/injection, schedule: Q01DX009 (ip), vehicle: saline with Tween-80 101 % of control | [9] 95 % of control | [10] 102 % of control | [11] 101 % of control | [12] 102 % of control | [13] 102 % of control

CN(C)N=Nc1ccc(CCC(=O)NN)cc1
inactive: dose: 20.0 mg/kg/injection, schedule: Q01DX Z (ip), vehicle: saline 111 % of control | dose: 30.0 mg/kg/injection, schedule: Q01DX Z (ip), vehicle: saline 114 % of control | dose: 67.0 mg/kg/injection, schedule: Q01DX Z (ip), vehicle: saline 91 % of control

O=C(O)c1ccccc1/C=N/N1C(=O)CSC1=S
inactive: dose: 2.5 mg/kg/injection, schedule: Q01DX001 (ip), vehicle: carboxymethylcellulose (CMC) 97 % of control | dose: 5.0 mg/kg/injection, schedule: Q01DX001 (ip), vehicle: carboxymethylcellulose (CMC) 97 % of control | dose: 10.0 mg/kg/injection, schedule: Q01DX001 (ip), vehicle: carboxymethylcellulose (CMC) 109 % of control

CC1(O)C2CC3CC(C2)CC1C3 (configuration not stated)
inactive: [7] 113 % of control | [8] 98 % of control and 87 % of control | dose: 400.0 mg/kg/injection, schedule: Q04DX002 (ip), vehicle: Klucel (hydroxypropylcellulose) (HPC) 94 % of control
